Test results: ChEMBL document CHEMBL1129748, “Structure-activity relationships of 4-hydroxy-3-nitroquinolin-2(1H)-ones as novel antagonists at the glycine site of N-methyl-D-aspartate receptors” (J Med Chem, 1996)

Target: T1, Glutamate receptor ionotropic, AMPA (Rattus norvegicus) (UniProt P19491+P19492+P19493+P19490)
Experiment: Compound was tested for inhibition of AMPA receptors was measured in oocytes expressing rat cerebral cortex poly(A)+ RNA.(Three cells were examined)
Type: functional, cell-based
Details: Oocyte

Kb [µM] | Compound
37 | O=[N+]([O-])c1c(O)nc2cc(Cl)cc(Cl)c2c1O

Target: Glutamate NMDA receptor
Experiment: Compound was tested for inhibition of [3H]DCKA binding to NMDA receptor of rat brain membranes
Type: cell membranes, Membrane
Details: not given

IC50 [µM] | Compound
1.5 | O=[N+]([O-])c1c(O)nc2cc(Cl)ccc2c1O

Test system: not listed separately
Experiment: Compound was tested for steady-state selectivity index for inhibition at NMDAreceptor glycine sites was estimated by dividing Kb AMPA by Kb glycine.
Type: functional
Details: not given

Selectivity | Compound
240 | O=[N+]([O-])c1c(O)nc2cc(Cl)c(Cl)c(Cl)c2c1O

Test system: not listed separately
Experiment: Compound was tested for steady-state selectivity index for inhibition at NMDA receptor glycine sites was estimated by dividing Kb AMPA by Kb glycine.
Type: functional
Details: not given

Selectivity | Compound
118 | O=[N+]([O-])c1c(O)nc2cc(Cl)cc(Cl)c2c1O
164 | Cc1cc(C)c2c(O)c([N+](=O)[O-])c(O)nc2c1

Target: T1, Glutamate receptor ionotropic, AMPA (Rattus norvegicus)
Experiment: Compound was tested for inhibition of AMPA receptors was measured in oocytes expressing rat cerebral cortex poly(A)+ RNA.(Three cells were examined )
Type: functional, cell-based
Details: Oocyte

Kb [µM] | Compound
19 | O=[N+]([O-])c1c(O)nc2cc(Cl)c(Cl)c(Cl)c2c1O

Target: Glutamate NMDA receptor
Experiment: Inhibition of [3H]DCKA binding to NMDA receptor of rat brain membranes.
Type: cell membranes, Membrane
Details: not given

IC50 [µM] | Compound
0.73 | O=c1[nH]c2c(F)c(F)c(F)c(F)c2[nH]c1=O
0.4 | O=[N+]([O-])c1c(O)nc2cc(Cl)c(Cl)cc2c1O
> 100 | O=[N+]([O-])c1c(O)nc2c(Cl)cccc2c1O
0.22 | O=[N+]([O-])c1c(O)nc2cc(Cl)c(Cl)c(Cl)c2c1O
0.13 | Oc1nc2cc(Cl)c(Cl)cc2nc1O [2,3-DIHYDROXY-6,7-DICHLOROQUINOXALINE]
0.007 | O=Nc1c(O)nc2cc(Cl)c(Cl)c(Cl)c2c1O
4.4 | O=Nc1c(O)nc2cccc(Cl)c2c1O
> 100 | O=[N+]([O-])c1c(O)nc2ccc(Cl)cc2c1O
0.053 | O=Nc1c(O)nc2cc(Cl)ccc2c1O
0.91 | O=Nc1c(O)c2cc(F)c(Cl)c(F)c2[nH]c1=O
3.4 | O=Nc1c(O)c2cc(Cl)ccc2[nH]c1=O
0.033 | O=Nc1c(O)c2c(Cl)cc(Cl)cc2[nH]c1=O
0.22 | O=[N+]([O-])c1c(O)nc2cc(Cl)cc(Cl)c2c1O
1.4 | O=Nc1c(O)nc2ccccc2c1O
61 | O=[N+]([O-])c1c(O)nc2cccc(Cl)c2c1O
3.3 | O=Nc1c(O)c2c(F)c(F)c(F)c(F)c2[nH]c1=O
0.03 | Oc1nc2cc(Cl)c(Cl)c(Cl)c2nc1O
0.63 | Oc1nc2cc(F)c(Cl)c(F)c2nc1O
0.012 | O=Nc1c(O)nc2cc(Cl)c(Cl)cc2c1O
> 100 | O=[N+]([O-])c1c(O)nc2c(F)c(F)c(F)c(F)c2c1O
0.28 | Oc1nc2cc(Cl)cc(Cl)c2nc1O
0.29 | Cc1cc(C)c2c(O)c([N+](=O)[O-])c(O)nc2c1
2.1 | Cc1cc(C)c2nc(O)c(O)nc2c1
9.8 | Oc1nc2ccccc2nc1O
40 | O=[N+]([O-])c1c(O)nc2c(F)c(Cl)c(F)cc2c1O
0.037 | Cc1cc(C)c2c(O)c(N=O)c(=O)[nH]c2c1
> 100 | O=[N+]([O-])c1c(O)nc2c(Cl)c(Cl)c(Cl)cc2c1O
1.8 | O=c1[nH]c2ccc(Cl)cc2[nH]c1=O
> 100 | O=Nc1c(O)nc2c(Cl)cccc2c1O
34 | O=[N+]([O-])c1c(O)nc2ccccc2c1O
